This note sets out measurements from patent US9193731B2, “Antimicrobial compounds and methods of making and using the same” (Melinta Therapeutics, Inc., priority 2009, dated 2015).

This assay concerns Escherichia coli strain ATCC25922. Briefly: standard microdilution assay to determine minimum inhibitory concentrations (MICs). Conditions: for MIC: Escherichia coli, ATCC25922, Escherichia coli strain ATCC25922, microdilution, read-out: E. coli ATCC25922 MIC; for E. coli ATCC25922 MIC: Escherichia coli strain ATCC25922, microdilution. Type of assay: cell-based. The gist of the method: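 E. coli strain ATCC25922 tested per CLSI microdilution methodology (about 100 microliters per well) to find minimum inhibitory concentrations. Activity scored categorically at a 16 micrograms/ml threshold.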
A general note: Broth dilution looks for growth in wells or tubes with falling amounts of substance.

SMILES strings stand for the structures.

What is called MIC is the lowest concentration found to suppress growth. On to `NCCCNCc1ccc(-c2cn3cc(-c4ccc(C(=O)NC56CC7CC(CC(C7)C5)C6)cc4)[nH]c3nc2=O)cc1` [Compound 717], for which the MIC was > 16 µg/mL. In the case of `N=C(N)NCCCNCc1ccc(-n2cc3cc(CCNC4CCNCC4)[nH]c3nc2=O)cc1` [Compound 719], the MIC is < 16 µg/mL. Still for that read-out and setting: the figure for `CN(CCO)C(=O)c1ccc(-c2cn3cc(-c4ccc(CNCCCNC(=N)N)cc4)c(=O)nc3[nH]2)cc1` [Compound 720] is < 16 µg/mL; for `N=C(N)NCCCNCc1ccc(-c2cn3cc(-c4ccc(C(=O)N5CCN(c6ncccn6)CC5)cc4)[nH]c3nc2=O)cc1` [Compound 721] it is > 16 µg/mL; for `N=C(N)NCCCNCc1ccc(-c2cn3cc(-c4ccc(C(=O)NCCCN5CCNCC5)cc4)[nH]c3nc2=O)cc1` [Compound 722] it is < 16 µg/mL. Still for that read-out and setting: to `NCCCNCc1ccc(-c2cn3cc(-c4ccc(C(=O)NN5CCOCC5)cc4)[nH]c3nc2=O)cc1` [Compound 723] belongs > 16 µg/mL; to `N=C(N)NCCCNCc1ccc(-c2cn3cc(-c4ccc(C(=O)NC56CC7CC(CC(C7)C5)C6)cc4)[nH]c3nc2=O)cc1` [Compound 724], < 16 µg/mL; to `N=C(N)NCCCNCc1ccc(-n2cc3cc(-c4ccc(S(=O)(=O)N(Cc5ccc(Cl)c(Cl)c5)C5CCNCC5)cc4)[nH]c3nc2=O)cc1` [Compound 725], < 16 µg/mL. On the same count and under the same terms, to `NCCCNCc1ccc(-n2cc3cc(-c4ccc(S(=O)(=O)N(C5CCNCC5)C5CCOCC5)cc4)[nH]c3nc2=O)cc1` [Compound 726] belongs < 16 µg/mL; to `N=C(N)NCCCNCc1ccc(-n2cc3cc(-c4ccc(S(=O)(=O)N(C5CCNCC5)C5CCOCC5)cc4)[nH]c3nc2=O)cc1` [Compound 727], < 16 µg/mL; to `N=C(N)NCCCNCc1ccc(-n2cc3cc(-c4ccc(S(=O)(=O)N(CC5CC5)C5CCNCC5)cc4)[nH]c3nc2=O)cc1` [Compound 728], < 16 µg/mL. As for `COc1ccccc1-c1nn2cc(-c3ccc(CNCCCN)cc3)c(=O)nc2[nH]1` [Compound 734], the minimal inhibitory concentration (MIC) is > 16 µg/mL. Still for that read-out and setting: the figure for `CN(C(=O)c1ccc(-c2cn3cc(-c4ccc(CNCCCNC(=N)N)cc4)c(=O)nc3[nH]2)cc1)C1CCNCC1` [Compound 736] is < 16 µg/mL. On the same count and under the same terms, the figure for `CC(C)ONC(=O)c1ccc(-c2cn3cc(-c4ccc(CNCCCNC(=N)N)cc4)c(=O)nc3[nH]2)cc1` [Compound 737] is > 16 µg/mL. For the compound `NCCCNCc1ccc(-c2cn3cc(-c4ccc(C(=O)N5CC6CC5CN6)cc4)[nH]c3nc2=O)cc1` (centres unmarked) [Compound 742], the minimal inhibitory concentration (MIC) was < 16 µg/mL.

As for `NCCCNCc1ccc(-c2cn3cc(-c4ccc(S(=O)(=O)N5CC[C@@H](F)C5)cc4)[nH]c3nc2=O)cc1` [Compound 743], the minimum inhibitory concentration (MIC) is > 16 µg/mL. Still for that read-out and setting: the figure for `N=C(N)NCCCNCc1ccc(-c2cn3cc(-c4ccc(S(=O)(=O)N5CCC(F)C5)cc4)[nH]c3nc2=O)cc1` (centres unmarked) [Compound 744] is > 16 µg/mL; for `N=C(N)NCCCNCc1ccc(-c2cn3cc(-c4ccc(C(=O)N5CC6CC5CN6)cc4)[nH]c3nc2=O)cc1` (centres unmarked) [Compound 745] it is < 16 µg/mL; for `NCCCNCc1ccc(-c2cn3cc(-c4ccc(S(=O)(=O)N5CCOCC5)cc4)[nH]c3nc2=O)cc1` [Compound 746] it is > 16 µg/mL.

With `N=C(N)NCCCNCc1ccc(-n2cc3cc(-c4cc(C(=O)N5CCN(c6ccc(F)cc6)CC5)cc(N5CCNCC5)c4)[nH]c3nc2=O)cc1` [Compound 755], the minimal inhibitory concentration (MIC) was < 16 µg/mL.

For the compound `N=C(N)NCCCNCc1ccc(-n2cc3cc(-c4ccc(S(=O)(=O)N(Cc5ccccc5SC(F)(F)F)C5CCNCC5)cc4)[nH]c3nc2=O)cc1` [Compound 756], the “E. coli ATCC25922 MIC” value is on record as “+ (a “+” indicates that the compound has an MIC value of 16 micrograms/ml or less)”. As to `N=C(N)NCCCNCc1ccc(-n2cc3cc(-c4ccc(S(=O)(=O)N(Cc5ccncc5)C5CCNCC5)cc4)[nH]c3nc2=O)cc1` [Compound 757], the minimal inhibitory concentration (MIC) is < 16 µg/mL.

As to `N=C(N)NCCCNCc1ccc(-n2cc3cc(-c4ccc(S(=O)(=O)N(CC5CCOCC5)C5CCNCC5)cc4)[nH]c3nc2=O)cc1` [Compound 758], the “E. coli ATCC25922 MIC” value is recorded as “+ (a “+” indicates that the compound has an MIC value of 16 micrograms/ml or less)”.
